According to patent US20250368686A1, “PEPTIDE DRUGS FOR S[…] D[…] BLOCKING HOMO- AND HETERO-DIMERIZATION OF OPIOID RECEPTORS” (OKINAWA INSTITUTE OF SCIENCE AND TECHNOLOGY SCHOOL …, priority 2022, published 2025):
Counter-ions that a name gives are not always drawn. Like-named read-outs stand apart in the source and are kept apart here. Where no end group is shown, it is not given here.

Tests used:
[1] = biological target: T1, DOR and MOR (DM) heterodimers (Rattus norvegicus, UniProt P33535); assay: DM heterodimerisation, two-colour single-molecule imaging in CHO-K1 cells (colocalisation index, heterodimer lifetime); format: cell-based; conditions: for DM colocalisation, competition by expressed SNAPf-tagged TM peptides: CHO-K1 cells expressing DOR-mGFP, MOR-Halo and the TM peptide
T1 construct: expressed in transfected cells; host or cells: CHO-K1 cells stably co-expressing DOR and MOR
T1 sequence (P33535 whole entry, one chain of several): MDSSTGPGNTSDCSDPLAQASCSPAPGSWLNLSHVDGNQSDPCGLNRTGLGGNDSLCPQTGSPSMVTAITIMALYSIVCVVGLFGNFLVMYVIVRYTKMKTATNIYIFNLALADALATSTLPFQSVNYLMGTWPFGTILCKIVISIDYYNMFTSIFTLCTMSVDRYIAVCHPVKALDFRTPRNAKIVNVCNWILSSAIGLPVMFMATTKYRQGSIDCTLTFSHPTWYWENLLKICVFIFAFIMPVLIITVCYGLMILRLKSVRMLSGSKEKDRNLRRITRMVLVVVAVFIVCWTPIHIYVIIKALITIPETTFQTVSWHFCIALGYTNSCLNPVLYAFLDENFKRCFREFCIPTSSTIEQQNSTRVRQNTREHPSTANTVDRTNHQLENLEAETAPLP

MOR [2] = format: cell-based, rat; conditions: D- and K-cells
MOR [3] = biological target: T2, MOR (Rattus norvegicus, UniProt P33535); format: cell-based; set-up: expressed in transfected cells; host or cells: CHO-K1 (A10, A13); T24 (A16); CHO-K1 stably expressing Gqi5 (A19); conditions: CHO-K1 cells, addition alone
T2 sequence (P33535 whole entry): as the sequence (P33535 whole entry, one chain of several) above

MOR [4] = biological target: T2, MOR; format: cell-based; set-up: expressed in transfected cells; host or cells: CHO-K1 (A10, A13); T24 (A16); CHO-K1 stably expressing Gqi5 (A19); conditions: T24 cells, addition alone
DOR [5] = biological target: T3, DOR (Rattus norvegicus, UniProt P33533); format: cell-based; set-up: fluorescent tag protein (not specified for this assay); expressed in transfected cells; host or cells: CHO-K1 (D cells, MD cells); conditions: for DOR internalisation, effect of agonist: 0.5 μM agonist, D cells and MD cells
T3 sequence (P33533 whole entry): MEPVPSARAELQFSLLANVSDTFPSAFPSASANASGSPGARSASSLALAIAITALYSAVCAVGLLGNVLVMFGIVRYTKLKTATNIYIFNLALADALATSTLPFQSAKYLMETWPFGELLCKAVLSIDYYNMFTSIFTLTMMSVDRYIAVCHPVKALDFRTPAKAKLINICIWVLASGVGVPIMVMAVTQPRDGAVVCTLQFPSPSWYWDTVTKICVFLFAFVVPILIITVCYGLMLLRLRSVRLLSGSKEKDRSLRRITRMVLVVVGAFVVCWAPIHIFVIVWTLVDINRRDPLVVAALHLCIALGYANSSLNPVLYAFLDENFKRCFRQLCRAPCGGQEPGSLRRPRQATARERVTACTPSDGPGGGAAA

MOR [6] = biological target: T2, MOR; format: cell-based; set-up: fluorescent tag protein (not specified for this assay); expressed in transfected cells; host or cells: CHO-K1 (M cells, MD cells); for Ca2+ mobilisation CHO-K1 stably expressing Gqi5; conditions: 0.5 μM agonist; for MOR internalisation: 60-min observations
MOR [7] = biological target: T2, MOR; format: cell-based; set-up: fluorescent tag protein (not specified for this assay); expressed in transfected cells; host or cells: CHO-K1 (M cells, MD cells); for Ca2+ mobilisation CHO-K1 stably expressing Gqi5
DOR [8] = biological target: T3, DOR; format: cell-based; set-up: expressed in transfected cells; host or cells: CHO-K1 (A11, A14); T24 (A17); CHO-K1 stably expressing Gqi5 (A20); conditions: CHO-K1 cells, addition alone
DOR [9] = biological target: T3, DOR; format: cell-based; set-up: expressed in transfected cells; host or cells: CHO-K1 (A11, A14); T24 (A17); CHO-K1 stably expressing Gqi5 (A20); conditions: T24 cells, addition alone
T24 cells = assay: LDH cytotoxicity assay in T24 cells; format: cell-based, human; conditions: 48-h exposure, 50, 100 and 200 μM
Method: (§1) Cytotoxicity was measured by subtracting LDH content in remaining viable cells from total LDH in untreated controls.

hippocampal neurons = assay: LDH cytotoxicity assay in primary culture of hippocampal neurons; format: cell-based; conditions: hippocampal neurons DIV8, DIV12, DIV14; 48, 96 and 144-hour exposures, 100 μM
Method: as §1
Treatments of neurons with Trition-100 (1%) and DMSO (10%) for 48 h were used as positive controls.

`C[C@@H](NC(=O)[C@@H](N)Cc1ccc(O)cc1)C(=O)NCC(=O)N(C)[C@@H](Cc1ccccc1)C(=O)NCCO` [DAMGO, [D-Ala^2, N-Mc-Phet, Gly^5-ol]-enkephalin acetate salt] was tested, and the “DM heterodimer lifetime, effect of agonist” value ([1]; 0.5 μM agonist, within 5 min after addition) was “prolonged”, the “DM colocalisation index, effect of agonist” value ([1]; 0.5 μM agonist, within 5 min after addition, agonist-bound MOR with DOR) was “higher” and the “intracellular Ca2+ mobilisation” value (MOR [2]) was “not”. The “Fraction of internalized molecules” value (MOR [3]) was 28.1 ± 1.7 %, the “Residency time of internalized molecules” value (MOR [3]) was 11.3 ± 1.9 min and the “Fraction of internalized molecules” value (MOR [4]) was 26.3 ± 1.1 %. For the same compound, the “Residency time of internalized molecules” value (MOR [4]) was 6.5 ± 1.2 min, the DOR internalisation (DOR [5]; MD cells, 0.5 μM MOR agonist, 4.3% without DAMGO addition) was 13.3% and the MOR internalisation (MOR [6]; M cells) was 31.8%. The MOR internalisation (MOR [6]; MD cells) was 51.1%, the “intracellular Ca2+ mobilisation” value (MOR [7]; M-cells) was “induced” and the “intracellular Ca2+ mobilisation” value (MOR [7]; MD-cells, compared with M-cells) was “greatly enhanced”.
`C=CCN1C[C@H](C)N([C@H](c2ccc(C(=O)N(CC)CC)cc2)c2cccc(OC)c2)C[C@H]1C` [SNC-80] was tested, and the “Fraction of internalized molecules” value (DOR [8]) was 61.6 ± 1.7 %, the “Residency time of internalized molecules” value (DOR [8]) was 10.8 ± 0.9 min and the “Fraction of internalized molecules” value (DOR [9]) was 56.5 ± 1.9 %. For the same compound, the “Residency time of internalized molecules” value (DOR [9]) was 8.9 ± 1.0 min, the “DOR internalisation, effect of agonist” value (DOR [5]) was “induced dramatic DOR internalisation” and the “MOR internalisation, effect of agonist” value (MOR [6]; M cells and MD cells) was “induced”.
`CN1CC[C@]23c4c5ccc(O)c4O[C@H]2[C@@H](O)C=C[C@H]3[C@H]1C5` [morphine] was tested, and the “DOR internalisation, effect of agonist” value (DOR [5]) was “hardly affected”.
In the case of “LSHVDGNQSDPCGLNRTGLGGNDSLCPQTG [Mpep(32-61)MD]”, the DM colocalisation index ([1]; soluble peptides, 10 μM final, added to cells stably co-expressing WT-DOR and MOR) is reported as “largest reductions”.
For “MOR's N-term+TM1: aa53-99 sequence of MOR conjugated with the SNAPf tag, expressed in cells (NDSLCPQTGSPSMVTAITIMALYSIVCVVGLFGNFLVMYVIVRYTKM; cysteine pairing not given here; also: conjugated with SNAPf tag)”, the “DM colocalisation, competition by expressed SNAPf-tagged TM peptides” value [1] was “competes with DM dimers more effectively”.
With “MOR's TM1: MOR's TM1 (aa71-94) conjugated with the SNAPf tag, expressed in cells (IMALYSIVCVVGLFGNFLVMYVIV; also: conjugated with SNAPf tag)” the “DM colocalisation, competition by expressed SNAPf-tagged TM peptides” value [1] was “lowered the DM colocalisation”.
For SDTFPSAFPSASANASGSPGARS [Dpep(20-42)DM], the “cytotoxicity (LDH)” value (T24 cells) was “no toxicity” and the “cytotoxicity (LDH)” value (hippocampal neurons) was “little toxicity”.
